{"source": "patent US11096390B2", "about": "“Method of controlling weeds in a cultivation area of field corn” (SUMITOMO CHEMICAL COMPANY, LIMITED, priority 2019, dated 2021)", "key": {"field corn": {"test_system": "field corn", "experiment": "Pot test, soil spray after sowing: crop injury on field corn", "assay_type": "in vivo, Zea mays var. indentata and/or Zea mays var. indurata", "source_text": "(§1) The evaluation of the herbicidal effect and crop injury is classified into 0 to 100, where the numeral “0” indicates no or little difference in the state of germination or growth of weeds or corn under test at the time of examination as comparison with untreated weeds or corn, respectively and the numeral “100” indicates the complete death of weeds or corn under test or the complete inhibition of their germination or growth of weeds or corn under test.\n(§2) Three varieties of field corn, two varieties of popcorn, two varieties of sweet corn, two varieties of waxy corn, palmer amaranth, kochia and large crabgrass were sown to a pot filled with a soil. On the next day, a trifludimoxazin spray liquid (prepared by diluting an emuslfiable concentrate of trifludimoxazin with water) was uniformly sprayed onto the pot at the amount of 200 L per hectare so that the application rate of trifludimoxazin might be 50 g per hectare. 12 days after treatment, herbicidal effects on weeds and injury on corns were investigated. As a result, the herbicidal effect on each of the three weeds was 100.\nas §2, with “Four” for “Three”, “sweet” for “sweet corn, two varieties of waxy”, “25” for “50”, “13” for “12”"}, "[1]": {"test_system": "field corn, popcorn, sweet corn, and waxy corn", "experiment": "Example 2 pot test, spray the day before sowing corns: injuries on various corns", "assay_type": "in vivo, Zea mays", "conditions": "25 or 50 g per hectare; applied the day before sowing corns; 21 days after sowing corns", "source_text": "as §1\n(§3) A pot is filled with a soil, and then Palmer amaranth, waterhemp, kochia, common ragweed and marestail are sown thereto. On the same day, trifludimoxazin spray liquid (prepared by diluting trifludimoxazin formulation (an aqueous suspension concentrate containing 500 g/L of trifludimoxazin) with water) is uniformly applied onto the pot using sprayer at the amount of 200 L per hectare so that the application rate of trifludimoxazin may be 25 or 50 g per hectare. On the next day, field corn, popcorn, sweet corn, and waxy corn are sown. 21 days after sowing corns, herbicidal effects and injuries on various corns are investigated."}, "large crabgrass": {"test_system": "large crabgrass", "experiment": "Pot test, soil spray after sowing: herbicidal effect on large crabgrass", "assay_type": "in vivo, Digitaria sanguinalis", "source_text": "as §1, §2\n(§4) Four varieties of field corn, two varieties of popcorn, two varieties of sweet corn, palmer amaranth, kochia and large crabgrass were sown to a pot filled with a soil. […]"}, "[2]": {"test_system": "palmer amaranth, waterhemp, kochia, common ragweed and marestail", "experiment": "Example 1 pot test, spray two days after sowing: herbicidal effects on weeds", "assay_type": "in vivo", "conditions": "25 or 50 g per hectare; applied two days after sowing; 21 days after the treatment", "source_text": "as §1\nas §3, with “field corn, popcorn, sweet corn, waxy corn, palmer” for “Palmer”, “Two days later,” for “On the same day,”, “hectare.” for “hectare. On the next day, field corn, popcorn, sweet corn, and waxy corn are sown.”, “the treatment,” for “sowing corns,”"}, "sweet corn": {"test_system": "sweet corn", "experiment": "Pot test, soil spray after sowing: crop injury on sweet corn", "assay_type": "in vivo, Zea mays var. saccharata", "source_text": "as §1, §2\nas §2, with “Four” for “Three”, “sweet” for “sweet corn, two varieties of waxy”, “25” for “50”, “13” for “12”"}, "popcorn": {"test_system": "popcorn", "experiment": "Pot test, soil spray after sowing: crop injury on popcorn", "assay_type": "in vivo, Zea mays var. everta", "source_text": "as §1, §2\nas §2, with “Four” for “Three”, “sweet” for “sweet corn, two varieties of waxy”, “25” for “50”, “13” for “12”"}, "palmer amaranth": {"test_system": "palmer amaranth", "experiment": "Pot test, soil spray after sowing: herbicidal effect on palmer amaranth", "assay_type": "in vivo, Amaranthus palmeri", "source_text": "as §1, §2, §4"}, "waxy corn": {"test_system": "waxy corn", "experiment": "Pot test, soil spray after sowing: crop injury on waxy corn", "assay_type": "in vivo, Zea mays var. ceratina", "conditions": "50 g/ha, 12 days after treatment", "source_text": "as §1, §2"}, "[3]": {"test_system": "field corn, popcorn, sweet corn, waxy corn", "experiment": "Example 1 pot test, spray two days after sowing: injuries on various corns", "assay_type": "in vivo, Zea mays", "conditions": "25 or 50 g per hectare; applied two days after sowing; 21 days after the treatment", "source_text": "as §1\nas §3, with “field corn, popcorn, sweet corn, waxy corn, palmer” for “Palmer”, “Two days later,” for “On the same day,”, “hectare.” for “hectare. On the next day, field corn, popcorn, sweet corn, and waxy corn are sown.”, “the treatment,” for “sowing corns,”"}, "kochia": {"test_system": "kochia", "experiment": "Pot test, soil spray after sowing: herbicidal effect on kochia", "assay_type": "in vivo, Kochia scoparia", "source_text": "as §1, §2, §4"}, "[4]": {"test_system": "palmer amaranth, waterhemp, kochia, common ragweed and marestail", "experiment": "Example 2 pot test, spray the day before sowing corns: herbicidal effects on weeds", "assay_type": "in vivo", "conditions": "25 or 50 g per hectare; applied on day of weed sowing, corns sown next day; 21 days after sowing corns", "source_text": "as §1, §3"}, "[5]": {"conditions": "25 g per hectare, 13 days after treatment"}, "[6]": {"conditions": "50 g per hectare, 12 days after treatment"}}, "data": [{"smiles": "C#CCN1C(=O)C(F)(F)Oc2cc(F)c(-n3c(=O)n(C)c(=S)n(C)c3=O)cc21", "note": "[trifludimoxazin]", "values": [{"measurement": "Injury score on corn (0 to 100)", "setting": "field corn; Field corn DKC5632, 25 g/ha, 13 days after treatment", "result": 0}, {"measurement": "Injury score on corn (0 to 100)", "setting": "field corn; Field corn DKC5632, 50 g/ha, 12 days after treatment", "result": 10}, {"measurement": "Injury score on corn (0 to 100)", "setting": "field corn; Field corn Koshu, 25 g/ha, 13 days after treatment", "result": 0}, {"measurement": "Injury score on corn (0 to 100)", "setting": "field corn; Field corn Koshu, 50 g/ha, 12 days after treatment", "result": 5}, {"measurement": "Injury score on corn (0 to 100)", "setting": "field corn; Field corn MAS40F, 25 g/ha, 13 days after treatment", "result": 5}, {"measurement": "Injury score on corn (0 to 100)", "setting": "field corn; Field corn Pioneer 2088, 25 g/ha, 13 days after treatment", "result": 0}, {"measurement": "Injury score on corn (0 to 100)", "setting": "field corn; Field corn Pioneer 2088, 50 g/ha, 12 days after treatment", "result": 5}, {"measurement": "injury on field corn compared with popcorn, sweet corn and waxy corn", "setting": "[1]", "result": "less than those on popcorn, sweet corn and waxy corn"}, {"measurement": "herbicidal effect (0 to 100)", "setting": "large crabgrass; [5]", "result": 100}, {"measurement": "herbicidal effect (0 to 100)", "setting": "large crabgrass; [6]", "result": 100}, {"measurement": "herbicidal effects on all weeds", "setting": "[2]", "result": "High herbicidal effects"}, {"measurement": "Injury score on corn (0 to 100)", "setting": "sweet corn; Sweet corn Ohisama, 25 g/ha, 13 days after treatment", "result": 20}, {"measurement": "Injury score on corn (0 to 100)", "setting": "sweet corn; Sweet corn Ohisama, 50 g/ha, 12 days after treatment", "result": 40}, {"measurement": "Injury score on corn (0 to 100)", "setting": "sweet corn; Sweet corn Rancher 82, 25 g/ha, 13 days after treatment", "result": 30}, {"measurement": "Injury score on corn (0 to 100)", "setting": "sweet corn; Sweet corn Rancher 82, 50 g/ha, 12 days after treatment", "result": 30}, {"measurement": "Injury score on corn (0 to 100)", "setting": "popcorn; Popcorn Maru-pop, 25 g/ha, 13 days after treatment", "result": 20}, {"measurement": "Injury score on corn (0 to 100)", "setting": "popcorn; Popcorn Maru-pop, 50 g/ha, 12 days after treatment", "result": 50}, {"measurement": "Injury score on corn (0 to 100)", "setting": "popcorn; Popcorn Yuki-pop, 25 g/ha, 13 days after treatment", "result": 20}, {"measurement": "Injury score on corn (0 to 100)", "setting": "popcorn; Popcorn Yuki-pop, 50 g/ha, 12 days after treatment", "result": 40}, {"measurement": "herbicidal effect (0 to 100)", "setting": "palmer amaranth; [5]", "result": 100}, {"measurement": "herbicidal effect (0 to 100)", "setting": "palmer amaranth; [6]", "result": 100}, {"measurement": "Injury score on corn (0 to 100)", "setting": "waxy corn; Waxy corn Ki-mochi", "result": 30}, {"measurement": "Injury score on corn (0 to 100)", "setting": "waxy corn; Waxy corn Shiro-mochi", "result": 40}, {"measurement": "injury on field corn compared with popcorn, sweet corn and waxy corn", "setting": "[3]", "result": "less than those on popcorn, sweet corn and waxy corn"}, {"measurement": "herbicidal effect (0 to 100)", "setting": "kochia; [5]", "result": 100}, {"measurement": "herbicidal effect (0 to 100)", "setting": "kochia; [6]", "result": 100}, {"measurement": "herbicidal effects on all weeds", "setting": "[4]", "result": "High herbicidal effects"}]}]}
